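1) Cells in 96-well plates. 2) Compound, 48 h, 5 concentrations. 3) Linear interpolation between surrounding doses. 4) Unreached endpoint = highest concentration. GI50: concentration for 50% inhibition of growth. At the TGI there is no net growth.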

What all share (test): inhibition of tumour cell growth, NCI panel, 48 h
Assay [1] has as its system BT-549 breast.
The subject of assay [2] is CCRF-CEM leukemia.
The test system of assay [3] is A549 NSCLC.
The subject of assay [4] is NCI/ADR-RES ovarian.
Assay [5] concerns OVCAR-3 ovarian.
In assay [6] the test system is MDA-MB-231 breast.
In assay [7] the test system is ACHN renal.
Assay [8] concerns UACC-257 melanoma.
In assay [9] the test system is SK-MEL-28 melanoma.
Assay [10] has as its system K-562 leukemia.

In the case of `O=C1OCC2=C1C(c1cccc(Cl)c1)c1cc3c(cc1N2CCO)CCC3` (stereo not given), the GI50 in assay [1] was 0.166 µM; in assay [2] it was 0.0416 µM; in assay [3] it was 0.0477 µM; in assay [4], 0.0289 µM; in [5], 0.0253 µM; in assay [6], 0.217 µM. In addition, the GI50 is 0.0846 µM in assay [7], 0.0354 µM in assay [8], 0.0574 µM in assay [9] and 0.0478 µM in assay [10]. Moreover, the TGI is 8.69 µM in assay [1]; 14.1 µM in [2]; 6.45 µM in assay [3]; 0.108 µM in assay [4]; 0.0666 µM in assay [5]; 2.21 µM in [6]. Also, the TGI in [7] stood at 14.6 µM; in assay [8] it was 15.6 µM; in assay [9], 20.2 µM; in [10] it was 14.4 µM.

On to `O=C(CN1CCN(C(=O)c2ccco2)CC1)Nc1ccc(Cl)cc1C(=O)c1ccccc1Cl`, for which the GI50 is 2.62 µM in assay [1]; 5.28 µM in assay [2]; 5.61 µM in assay [3]; 10 µM in assay [4]; 5.53 µM in assay [5]; 9.51 µM in assay [6]. Besides, the GI50 in assay [7] was 10.3 µM; in assay [8] it was 12.5 µM; in assay [9], 11.6 µM; in assay [10], 0.691 µM. Besides, the TGI in assay [1] was 13.1 µM; in assay [2], above 100 µM; in [3], 39.4 µM; in assay [4], 43.8 µM; in assay [5], 17.5 µM; in [6], 46.1 µM. Further, the TGI stood at 43.7 µM in assay [7], 31.8 µM in [8], 23.9 µM in assay [9] and 10.5 µM in assay [10].

As to `COc1cc(C2CC(c3cccc(Nc4ccnc5cc(Cl)ccc45)c3)=NN2c2ccccc2)cc(OC)c1OC` (stereo not given), the GI50 in [1] is 13.9 µM; in assay [2], 6.4 µM; in [3], 8.87 µM; in assay [4], 5.97 µM; in assay [5] it was 8.64 µM; in assay [6], 4.77 µM. Moreover, the GI50 in assay [7] was 3.52 µM; in assay [8], 10.5 µM; in [9] it was 10.4 µM; in assay [10] it was 3.75 µM. Also, the TGI in [1], in assay [2], in assay [3], in assay [4], in assay [5] and in assay [6] was above 100 µM in each case. Also, the TGI in [7], in assay [8], in assay [9] and in [10] was above 100 µM in each case.

For the molecule `Cc1cc(C)c2c(c1)N(C)c1ncnc(-n3cnc4cc(C)ccc43)c1CC2C` (stereo not given), the GI50 is 2.93 µM in [1]; 2.78 µM in [2]; 4.03 µM in assay [3]; 3.05 µM in assay [4]; 3.32 µM in [5]; 3.03 µM in [6]. Besides, the GI50 in assay [7] is 4.07 µM; in assay [8], 11.5 µM; in assay [9], 5.61 µM; in assay [10], 1.5 µM. Also, the TGI turned out to be 12 µM in [1]; 11.4 µM in assay [2]; 56.9 µM in [3]; 19.5 µM in [4]; 14.7 µM in assay [5]; 14.6 µM in [6]. Also, the TGI in [7] was 18.3 µM; in [8], 38.5 µM; in [9] it was 20.7 µM; in assay [10], above 100 µM.

On to `O=C1c2ccc3c4c(ccc(c24)C(=O)N1CCNCc1ccccc1)C(=O)N(CCNCc1ccccc1)C3=O`, for which the GI50 in assay [1] was 2.45 µM; in [2], 2.51 µM; in [3], 1.87 µM; in assay [4], 1.81 µM; in assay [5] it was 1.91 µM; in assay [6], 2.31 µM. For the same molecule, the GI50 in assay [7] was 3.19 µM; in assay [8], 1.69 µM; in [9], 2.59 µM; in assay [10] it was 0.365 µM. Moreover, the TGI in assay [1] is 6.19 µM; in assay [2], above 100 µM; in assay [3] it was 8.77 µM; in assay [4] it was 4.94 µM; in assay [5], 4.16 µM; in assay [6] it was 6.61 µM. Further, the TGI is 13.5 µM in [7], 3.45 µM in assay [8], 7.13 µM in [9] and above 100 µM in assay [10].

The values above are taken from PubChem BioAssay (NCI).
